Results on 3 compounds are retold here after US12201696B2, “Multiplexed analysis of materials for tissue delivery” (Georgia Tech Research Corporation, priority 2017, dated 2025).

The assay concerns HEK293 cells stably transduced with a CMV-lox-GFP-stop-lox-RFP construct. The assay can be described thus: Endocytosis inhibition in LGSL-RFP HEK cells. Type of assay: cell-based. Conditions: for effect on in vitro endocytosis and functional Cre mRNA delivery of ATL1 and ATL2: LGSL-RFP cells. As for the experimental part: For experiments shown in FIG. 1, cells were incubated with endocytosis inhibitors 1 hour prior to incubation with pooled LNPs against clathrin-mediated endocytosis (chlorpromazine, 100 μM, Alfa Aesar), caveolae-mediated endocytosis (genistein, 100 μM, TCI America), and macropinocytosis (5-(N-Ethyl-N-isopropyl) Amiloride, EIPA, 50 μM, Toronto Research Chemicals).
To determine whether FIND could simultaneously measure delivery mediated by many nanoparticles, 54 chemically distinct LNPs were formulated (Table 5, FIGS. 4J-4O); each carried Cre mRNA and a unique DNA barcode. The LNPs were administered to HEK cells in a 6 well plate using an mRNA dose of 10, 100, or 1000 ng/well, and a mRNA: DNA barcode mass ratio of 10:1. A dose-dependent increase in RFP^+ cells was observed, with over 80% of the cells RFP^+ at 1000 ng 72 hours after transfection (FIG. 1G). Barcodes were deep sequenced at all 3 doses, reasoning that LNPs which delivered barcodes at the lowest dose (4% RFP^+ cells) would also deliver LNPs at the middle dose (20% RFP^+ cells). There was a strong relationship between normalized delivery at these 2 doses (FIG. 1H). Cells treated with 1000 ng mRNA were also sequenced. As expected, the relationship between 1000 ng and either 10 or 100 ng weakened, since at this dose, nearly all the cells (>80% were RFP^+), leading to system saturation (FIG. 4P-4Q). Finally, it was evaluated whether the number of RFP^+ cells decreased when cells were pre-treated with Chlorpromazine, Genistein, or Ethylisopropyl amiloride (EIPA), which inhibit clathrin-, caveolin-, and macropinocytosis-mediated endocytosis, respectively. Compared to cells that were not treated with inhibitors, the number of RFP^+ cells decreased by 40-60%, recapitulating previous LNP results (Sahay, Querbes et al. 2013, Dahlman, Barnes et al. 2014, Wittrup, Ai et al. 2015) (FIG. 1I).
Like all high throughput screens, LNPs identified by FIND need to be validated. ATL1 and ATL2 (FIG. 3A, 3B-3E) were selected. […] (FIG. 6C-6F).

In the case of `CN(C)CCCN1c2ccccc2Sc2ccc(Cl)cc21` [Chlorpromazine, chlorpromazine], the “effect on in vitro endocytosis and functional Cre mRNA delivery of ATL1 and ATL2” value (“effect” below) is recorded as “inhibited”. The inhibition at 100 µM (Homo sapiens, HEK293, pre-treatment 1 hour before pooled 54 LNPs (100 ng total mRNA), chlorpromazine 100 μM, genistein 100 μM, EIPA 50 μM, read-out: decrease in number of RFP+ cells compared to cells not treated with inhibitors) was 40 to 60%. For `CCN(c1nc(N)c(C(=O)N=C(N)N)nc1Cl)C(C)C` [EIPA, 5-(N-Ethyl-N-isopropyl) Amiloride], the “effect” value is listed as “only impacted LNP uptake”. On to `O=c1c(-c2ccc(O)cc2)coc2cc(O)cc(O)c12` [Genistein, genistein], for which the “effect” value is recorded as “inhibited”.
